Measured values from patent US9689042B2, “Use of glycolytic pathways for inhibiting or measuring oncogenic signaling” (The Regents of the University of California, priority 2012, dated 2017).
“Also recorded” adds a separate entry of the source. d = 2'-deoxy (DNA); r = 2'-OH (RNA)

Tests used:
T4-2 cells [1] = details: for phenotypic reversion of the malignant phenotype: 2DG 4 mM, IA 20 μM, OX 50 mM, Azs 20 μM, DON 20 μM, BADGP 5 mM, TM 10 ng/ml, OGM 4 ng/ml, Rapa 0.01-1.0 μM; for rescue of the malignant (disorganized) phenotype by supplementation: T4-2 cells reverted by IA 20 μM or 1.75 mM glucose, PEP 0.5 mM, pyruvate
Protocol: (§1) HMT-3522 cells were cultured on tissue culture plastic (2D) and in 3D lrECM gels with H14 medium, a 1:1 mix of DMEM/F12 (UCSF Cell Culture Facility) supplemented with 250 ng/ml insulin, 10 μg/ml transferrin, 2.6 ng/ml sodium selenite, 0.1 nM β-estradiol, 1.4 μM hydrocortisone and 5 μg/ml prolactin but no serum. S1 cells were additionally supplemented with 10 ng/ml EGF. MDA-MB-231 and HCC70 cells were cultured in DMEM and RPMI1640, respectively, and were supplemented with 10% fetal bovine serum (FBS).
(§2) For 3D lrECM cultures, S1 and T4-2 cells were seeded at 840,000 and 600,000 cells per cm3 respectively in lrECM gel (Cultrex), overlaid with H14 medium. MDA-MB-231 and HCC70 cells were seeded at 625,000 cell per cm3 and overlaid with H14 medium supplemented with 1% FBS. Cells were used for each assay after 10 days, unless otherwise indicated.
Pieces of lrECM gel containing cell colonies were suspended in approximately the same volume of phosphate buffered saline (PBS) and directly spread on glass slides. After brief air-drying, colonies were fixed with 3.7% paraformaldehyde (PFA) in PBS at room temperature (RT) for 10 min, washed with PBS containing 0.1 mM glycine, and permeabilized with 1:1 methanol/acetone at −20° C. for 10 min. After blocking with IF buffer (0.2% Triton X-100, 0.1% BSA [radioimmunoassay grade], 0.05% Tween 20, 7.7 mM NaN3 in PBS) containing 10% goat serum and 1% goat F(ab′)2 anti-mouse immunoglobulin G (IgG; Caltag) at RT for 30 min, colonies were stained with anti-α6 integrin antibody (Chemicon International) at 4° C. overnight. Colonies were washed extensively with IF buffer, and stained with Alexa 568-labeled anti-rat IgG antibody at RT for 2 hr. Colonies were washed with IF buffer again, and nuclei were stained with DAPI at RT for 10 min. Slides were briefly washed with PBS and mounted with 50% glycerol in PBS.
To test whether increased glucose metabolism itself is required for oncogenic signaling events, we utilized 3D lrECM cultures of HMT-3522, a breast cancer progression series which includes non-malignant (S1) and malignant (T4-2) human breast epithelial cells from the same individual (Briand et al., 1987; Petersen et al., 1992; Rizki et al., 2008). Using these cells, we have described the involvement and reciprocity of multiple signaling pathways including EGFR, β1 integrin, PI3K-Akt and MEK-ERK in oncogenic events (Beliveau et al., 2010; Bissell et al., 2005). […] We thus used this “phenotypic reversion” of the cancer cells as an assay to examine how the signaling integration plan of the breast acini could involve glucose metabolism.

Rap1 = assay: Measurement of Rap1 activity (GST-RalGDS-RBD pull-down) in T4-2 cells; type: cell-based, human; details: T4-2 cells treated with IA 20 μM or 1.75 mM glucose; PEP 0.5 mM, ESCA 20 μM
Protocol: Rap1 activity was measured as described previously (Itoh et al., 2007). Briefly, cell colonies were extracted from lrECM as described above, and lysed in lysis buffer (50 mM Tris-HCl [pH 7.4], 500 mM NaCl, 1% NP40, 2.5 mM MgCl2, 10% glycerol, 10 μg/ml aprotinin and 10 μg/ml leupeptin) at 4° C. for 30 min. Lysates were cleared by centrifugation at 15,000×g at 4° C. for 15 min. Supernatants (containing 300 μg protein in 300 μl) were incubated with 15 μg of GST-tagged RalGDS-RBD fusion protein immobilized on Glutathione Sepharose 4B beads (GE Healthcare), at 4° C. for 1 hr. Beads were washed trice in lysis buffer and resuspended in Laemmli buffer. Samples were separated by SDS-PAGE, followed by transfer to polyvinylidene fluoride membranes (0.2 μm pore) and immunoblotting using anti-Rap1 antibody.

[2] = tested on: EGFR, β1 integrin, Akt, MEK, GLUT3, glycolytic enzymes in T4-2 cells; assay: Western blots of signaling intermediates, GLUT3 and metabolic enzymes in 3D lrECM cultures of T4-2 cells; type: cell-based, human; details: T4-2 cells reverted by IA 20 μM or 1.75 mM glucose, 3D lrECM; PEP 0.5 mM, ESCA 20 μM
Protocol: Cell colonies were separated from lrECM gels by shaking in PBS containing 5 mM EDTA and the proteinase inhibitor cocktail set I (Calbiochem) on ice for 30 min. Cells were lysed in lysis buffer (1% NP-40, 1% deoxycholate, 2% SDS, 150 mM NaCl, 20 mM Tris-HCl [pH 7.4] plus 5 mM EDTA and protease inhibitor cocktail set I and phosphatase inhibitor cocktail set I [Calbiochem]) and sonicated three times for 30 sec each. Proteins were separated by SDS-PAGE, transferred to nitrocellulose membranes, and probed with antibodies against the following proteins: phosphorylated MEK, MEK, phosphorylated Akt, Akt, phosphorylated AMPK, AMPK, p70S6K, phosphorylated p70S6K, CHOP, EPAC1 (Cell Signaling), β1 integrin, EGFR, activated EGFR, HIF-1α, (Chemicon International), PFKP (Abgent), GAPDH, GLUT3 (GeneTex), LDHA, PDHE1α, DLAT, DLD, HIF-3α, Rap1, sAC, EPAC2, OGT, Lamin A/C (Santa Cruz Biotechnology), Aldolase (Polysciences), GFPT (ProteinTech Group), HIF-2α (Abcam), and HA-tag (Covance). After probing with HRP-conjugated secondary antibodies, blots were developed using SuperSignal West Femto chemiluminescence reagent (Pierce Biotechnology). Images were captured using Fluor Chem 8900 imager (Alpha Innotech).

S1 cells = assay: 3D lrECM culture of non-malignant S1 cells: acinar morphology and growth; type: cell-based, human; details: 2DG 4 mM, OGM 4 ng/ml
Protocol: as §1, §2
Pieces of lrECM gel containing cell colonies were suspended in approximately the same volume of phosphate buffered saline (PBS) and directly spread on glass slides. After brief air-drying, colonies were fixed with 3.7% paraformaldehyde (PFA) in PBS at room temperature (RT) for 10 min, washed with PBS containing 0.1 mM glycine, and permeabilized with 1:1 methanol/acetone at −20° C. for 10 min. […]

T4-2 cells [3] = assay: siRNA knockdown in T4-2 cells cultured in 3D-on top (3D-OT) lrECM; type: cell-based, human; details: 3 days
Protocol: For experiments that need to be done in shorter-term (e.g. cultures of siRNA-transfected cells or for live imaging), cells were seeded at 60,000 cells per cm2 on top (3D-OT) of lrECM gels overlaid with H14 medium containing 5% (v/v) lrECM. Cells were harvested after 3 days.
Predesigned siRNA duplexes targeting GLUT3, GFPT1, GFPT2 and OGT, as well as control siRNA were obtained from Ambion. The other siRNA duplexes were chemically synthesized and purchased from Hokkaido System Science. The sequences are as follows:
For transfection of each siRNA into T4-2 cells, Lipofectamine RNAi MAX (Invitrogen) was used, according to the manufacturer's instruction. Cells were trypsinized 36 hrs after transfection and cultured in 3D-OT lrECM for 3 days before harvest.

[4] = T4-2 cells, 3D lrECM, same inhibitor concentrations as E1

CC(=O)N[C@H]1[C@@H](OCc2ccccc2)O[C@H](CO)[C@H](O)[C@@H]1O [BADGP, Benzyl-2-acetamido-2-deoxy-α-D-galactopyranoside]
phenotypic reversion of the malignant phenotype (T4-2 cells [1]; T4-2 cells, 3D lrECM): do induce phenotypic reversion; also recorded: induced phenotypic reversion

CO[C@@H]1[C@@H]2OP(=O)(O)OC[C@H]2O[C@H]1n1c(Sc2ccc(Cl)cc2)nc2c(N)ncnc21 [ESCA, 8CPT-2′-OMe-cAMP]
Rap1 reactivation by supplementation (Rap1): reactivated Rap1
recovery of β1 integrin expression and Akt activity by supplementation [2]: partially restored
rescue of the malignant (disorganized) phenotype by supplementation (T4-2 cells [1]; 3D lrECM, ESCA 20 μM): loss of tissue polarity
restoration of proliferation by supplementation (T4-2 cells [1]; T4-2 cells treated with IA 20 μM or 1.75 mM glucose, ESCA 20 μM): did not restore proliferation to the level of non-treated cultures

CC(Sc1nc2ccccc2[nH]1)C(=O)N/N=C/c1cc(Br)ccc1O (stereo not drawn) [KH7]
reactivation (disorganization, Rap1, β1 integrin and Akt) on raising glucose from 1.75 mM to 5.5 mM (T4-2 cells [1]; T4-2 cells reverted in 1.75 mM glucose, then 5.5 mM glucose with KH7): almost completely abolished
phenotypic reversion of the malignant phenotype (T4-2 cells [1]; T4-2 cells, 3D lrECM): do induce phenotypic reversion

CC[C@H]1/C=C/C=C/C[C@@H](C)[C@H](O)[C@@](C)(O)C(=O)[C@@H](C)[C@H](O)[C@@H](C)C(=O)[C@@H](C)[C@H](O)[C@@H](C)/C=C/C(=O)O[C@@H]2[C@H](C)[C@H](CC1)O[C@]1(CC[C@H](C)[C@H](C[C@@H](C)O)O1)[C@H]2C [OGM, Oligomycin]
acinar morphology, basal polarity and growth rate of non-malignant cells (S1 cells): lost basal tissue polarity
phenotypic reversion of the malignant phenotype (T4-2 cells [1]; T4-2 cells, 3D lrECM): do not induce phenotypic reversion
basal polarity / organized acinar structures (T4-2 cells [1]; [4]): did not induce organized structures
growth / proliferation (cell numbers at the colony mid-section, EdU incorporation) (T4-2 cells [1]; [4]): suppressing proliferation significantly

C=C(OP(=O)(O)O)C(=O)O [PEP, phosphoenolpyruvate]
Rap1 reactivation by supplementation (Rap1): Rap1 reactivation
recovery of β1 integrin expression and Akt activity by supplementation [2]: partially recovered
rescue of the malignant (disorganized) phenotype by supplementation (T4-2 cells [1]; 3D lrECM, ESCA 20 μM): reproduced the disorganized structure

GAPDH siRNA: chemically synthesized siRNA duplex targeting GAPDH, SEQ ID NO: 1 and SEQ ID NO: 2 (chain 1 GAGCCACAUCGCUCAGACA; chain 2 UGUCUGAGCGAUGUGGCUC; listed as RNA, chemistry not fully specified)
phenotype after siRNA knockdown (reversion) (T4-2 cells [3]): essentially reproduced the above results

Tunicamycin [TM]
phenotypic reversion of the malignant phenotype (T4-2 cells [1]; T4-2 cells, 3D lrECM): do not induce phenotypic reversion; also recorded: did not lead to phenotypic reversion
cell death (T4-2 cells [1]; T4-2 cells, increasing amounts of tunicamycin (data not shown)): induced significant cell death

sAC siRNA: chemically synthesized siRNA duplex targeting sAC, SEQ ID NO: 7 and SEQ ID NO: 8 (chain 1 AUGUAGCCUGGAGAUCCAUTT; chain 2 AUGGAUCUCCAGGCUACAUTT; sugars from the 5' end r19 d2, backbone not given here)
phenotype after siRNA knockdown (reversion) (T4-2 cells [3]): induced phenotypic reversion
